According to patent publication US9902725B2, “Heterocyclic derivatives as RORgamma modulators” (GENFIT, priority 2014, dated 2018):

System: MOG-induced EAE mice
Experiment: MOG-induced EAE in mice, clinical score
Assay type: in vivo
Procedure: 8-10 week old, male C57BL/6 mice were purchased from Janvier Lab (St Berthevin, France) and housed in a specific pathogen free (SPF) animal facility for one week before the start of the studies. Peptide antigen MOG35-55 (Myelin Oligodendrocyte Glycoprotein) ([…], SEQ ID NO:1, Polypeptide group, France) was dissolved in PBS and emulsified with an equal volume of Complete Freund's Adjuvant (CFA) containing 5 mg/mL of mycobacteria and administrated by subcutaneous injection at the dorsal flanks on day 0 at 200 μg/mouse. To ensure induction of reliable EAE, 200 ng of Bordetella pertussis toxin (Sigma) was given via intraperitoneal injection at day 0 and 2 (Cua, Sherlock et al. 2003; Zhang, Gran et al. 2003). Animals were treated with drug beginning 2 days before peptide injection. Animals were randomized into groups for treatment by weight, so that the average weight of each group was similar. The groups were segregated by cage. Compounds according to the invention were suspended in Carboxymethyl Cellulose (CMC) 1% (Sigma) and Tween80 0.1% (Sigma) by sonication and animals were dosed daily by gavage with 10 mL/kg body weight. The daily dose of Cpd. 1 was 30 mg/kg and vidofludimus (reference compound) at 60 mg/kg in protocol 1 to assess IL-17 A and IL-17F secretion from splenocytes ex vivo. In protocol 2, mice were treated with Cpd. 1 at 3 and 10 mg/Kg or T4 compound at 1 and 10 mg/kg daily by gavage to assess the clinical score. Clinical assessment of EAE was performed daily according to the following criteria: 0) no disease, 1) limp tail, 2) weak/partially paralyzed hind legs, 3) completely paralyzed hind legs, 4) complete hind and partial front leg paralysis, and 5) complete paralysis/death. For Cytokine quantifications, mice were euthanized 20 days after EAE induction. Spleen-isolated cells were collected and adjusted to 2×10^6 cells/mL. Cells were cultured in complete RPMI medium (RPMI supplemented with 10% of fetal calf serum, 1% glutamine, and 1% penicillin/streptomycin). Spleen cells were stimulated with MOG (20 μg/mL) (Polypeptide group, France). Cytokine levels were evaluated 48 h later by ELISA (R&D Systems Europe) or HTRF (CisBio, France) in culture supernatants using IL-17A and IL-17-F according to the manufacturer's protocols. The statistical significance was based on Student's t test (p<0.05, unpaired test).

Structure (SMILES): O=C(O)CCc1c[nH]c2ccc(CC(=O)NC(c3ccccc3)c3ccccc3N3CCCCC3)cc12 (centres unmarked) [Cpd. 1, 3-{5-[({phenyl[2-(piperidin-1-yl)phenyl]methyl}carbamoyl)methyl]-1H-indol-3-yl}propanoic acid]
- onset of EAE (administered p/os (orally) for 20 days): able to delay the onset of EAE
- EAE clinical score (daily by gavage, Cpd. 1 at 3 and 10 mg/Kg, T4 compound at 1 and 10 mg/kg): improvement was apparent
